Laboratory results reported in patent US20020058701A1 (priority 2000, published 2002).

What was measured:
[1] = Body weights and food consumption in diabetic db/db mice; assay type: in vivo; settings: 250 mg/kg
Description: (§1) Genetically altered obese diabetic mice (designated C57BL/ks diabetic or db/db) were purchased from the Jackson Laboratory (Bar Harbor, Me., USA), and served as experimental animals. Male animals between the ages of 8-9 weeks were employed in the studies described here. Animals were housed (4 mice/cage) under standard laboratory conditions at 22° C. and 50% relative humidity, and were maintained on a diet of Purina rodent chow and water ad libitum. Prior to treatment, blood was collected from the tail vein of each animal. Mice that had plasma glucose levels between 350 and 600 mg/dL were used. Each treatment group consisted of eight mice that were distributed so that the mean glucose levels were equivalent in each group at the start of the study. Db/db mice received, orally by gavage: the experimental compound administered at 62.5, 125, or 250 mg/kg/day (unless otherwise noted), or metformin administered at […] for 1-3 days. Test compounds were delivered in a liquid vehicle containing 0.25% (w/v) carboxymethyl-cellulose, 1% (v/v) Tween […] (polyoxyethylene sorbitan monosterate), and up to 10% (v/v) dimethyl sulfoxide (DMSO) in a volume of 10 ml/kg. Blood was sampled from the tail vein at three hours, six, eight, twenty-four, and thirty hours post-administration (the first administration) of the particular compound in non-fasted conditions. Experiments 3-5 also sampled blood at fifty-four hours post-administration (the first administration) of the particular compound in non-fasted conditions. Blood samples were analyzed for plasma glucose levels. Individual body weights and mean food consumption (each cage) were also measured daily.

[2] = test system: C57BL/ks diabetic (db/db) mice; test: Glucose-lowering (plasma glucose) in diabetic db/db mice; assay type: in vivo; settings: for Change in Glucose (mg/dL) 6 H: 6 h after initial dose; for Change in Glucose (mg/dL) 30 H: 30 h after initial dose; for Change in Glucose (mg/dL) 54 H: 54 h after initial dose
Description: as §1
The isolated test substances were prepared as described previously (vide supra). Metformin (1,1-dimethylbiguanide), carboxymethyl cellulose and Tween 60 were purchased from Sigma Chemical Co. (St. Louis, Mo., USA; catalog #'s D-5035, C-4888, and p-1629, respectively). Plasma glucose levels were determined colorimetrically using glucose oxidase (Sigma Chemical Co.; Sigma catalog #315). Significant differences between groups (comparing compound-treated to vehicle-treated) were evaluated using analysis of variance and Fisher's post-hoc test.
Vehicle, metformin (250 mg/kg) or enriched extract (1000 mg/kg) were given to db/db mice at 0(initial), 8, 24, 32, 48, 56, 72, 80, and 96 hours post initial dose.
Plasma glucose levels were measured at baseline, 3 (day 1), 51 hours (Day 3), and 99 hours (Day 5).

CN(C)C(=N)NC(=N)N [Metformin, 1,1-dimethylbiguanide, reference compound]
Food Intake (g/mouse) 0-48 h ([1]; vehicle 6.0, Table 9): 5.4 g/mouse | Food Intake (g/mouse) 0-48 h ([1]; vehicle 6.3, Tables 5 and 7): 5.1 g/mouse | Body weight (g/mouse) (mean) 0 h ([1]; vehicle 39.2 ± 0.5, Tables 5 and 7): 37.3 ± 0.7 g/mouse | Body weight (g/mouse) (mean) 0 h ([1]; vehicle 39.8 ± 0.7, Table 9): 40.6 ± 0.4 g/mouse | Body weight (g/mouse) (mean) 48 hr ([1]; vehicle 39.5 ± 0.5, Tables 5 and 7): 37.2 ± 0.6 g/mouse | Body weight (g/mouse) (mean) 48 hr ([1]; vehicle 39.7 ± 0.6, Table 9): 40.5 ± 0.4 g/mouse | Change in Glucose (mg/dL) 6 H ([2]; 250 mg/kg q.d. oral at 0, 24, 48 h, vehicle 35.9, Tables 4 and 6): -180.4 mg/dL | Change in Glucose (mg/dL) 30 H ([2]; 250 mg/kg q.d. oral at 0, 24, 48 h, vehicle 79.6, Tables 4 and 6): -112.4 mg/dL | Change in Glucose (mg/dL) 54 H ([2]; 250 mg/kg q.d. oral at 0, 24, 48 h, vehicle 60.3, Tables 4 and 6): -41.3 mg/dL | glucose levels rose ([2]; Table 8, metformin 250 mg/kg, fifty-four hours after the initial dose, value = size of rise): 6.8 mg/dL | lowered plasma glucose levels by ([2]; Table 8, metformin 250 mg/kg, six hours after the initial dose, value = size of decline): approximately 113.6 mg/dL | lowered plasma glucose levels by ([2]; Table 8, metformin 250 mg/kg, thirty hours after the initial dose, value = size of decline): ~25.1 mg/dL | mean glucose levels declined from the baseline values ([2]; Tables 4 and 6, 250 mg/kg, fifty-four hours after initial dosing, value = size of decline): 41.3 mg/dL | mean glucose levels declined (lowered) from the baseline value ([2]; Tables 4 and 6, 250 mg/kg, six hours after initial dosing, value = size of decline): approximately 180.4 mg/dL | mean glucose levels declined (lowered) from the baseline values ([2]; Tables 4 and 6, 250 mg/kg, thirty hours after initial dosing, value = size of decline): ~112.4 mg/dL | Change in Glucose (mg/dL) 6 H ([2]; metformin 250 mg/kg q.d. oral, vehicle 15.5, Table 8): -113.6 mg/dL | Change in Glucose (mg/dL) 30 H ([2]; metformin 250 mg/kg q.d. oral, vehicle 56.6, Table 8): -25.1 mg/dL | Change in Glucose (mg/dL) 54 H ([2]; metformin 250 mg/kg q.d. oral, vehicle 88.6, Table 8): 6.8 mg/dL | Day 1 glucose ([2]; metformin 250 mg/kg, same schedule as extracts, 3 h post initial dose, vehicle −80.9): -180.5 mg/dL | Day 3 glucose ([2]; metformin 250 mg/kg, same schedule as extracts, 51 h post initial dose, vehicle −77.1): -207.5 mg/dL | Day 5 glucose ([2]; metformin 250 mg/kg, same schedule as extracts, 99 h post initial dose, vehicle +102.1): -86.4 mg/dL
